Measurements published in ChEMBL document CHEMBL4477196, “Rhodocomatulin-Type Anthraquinones from the Australian Marine Invertebrates Clathria hirsuta and Comatula rotalaria” (2016).

Test system: MCF7
Assay: Growth inhibition of human MCF7 cells at 10 uM incubated for 72 hrs by SRB assay
Type: functional
Details: MCF7, 72 h, read-out: GI

Q: With CCCC(=O)c1c(O)cc(O)c2c1C(=O)c1cc(OC)cc(OC)c1C2=O as the compound, how does the inhibition of growth at 10 µM read?
A: 9%
